Like-named read-outs stand apart in the source and are kept apart here. Bridge positions count the residues as written; N and C are the ends. Square brackets hold non-standard residues; d marks the D form. Ends that are not written are not given here. Peptide text beside a SMILES is read from it. * marks the point of attachment. NHOH = ON*
Experiments:
[1] = target: T1, C. elegans iPGM (Caenorhabditis elegans, UniProt G5EFZ1); assay: PGM enzyme assay (enolase–pyruvate kinase coupled, Kinase-Glo Plus end point) and IC50 determination; format: biochemical; conditions: for IC50: iPGM ortholog not given
[2] = target: D. immitis iPGM (Dirofilaria immitis, UniProt F4ZE01); assay: biochemical; conditions: Di iPGM Ave IC50 (M)
[3] = target: T2, B. malayi iPGM (Brugia malayi, UniProt Q4VWF8); assay: biochemical; format: binding
T2 sequence (Q4VWF8 1-515): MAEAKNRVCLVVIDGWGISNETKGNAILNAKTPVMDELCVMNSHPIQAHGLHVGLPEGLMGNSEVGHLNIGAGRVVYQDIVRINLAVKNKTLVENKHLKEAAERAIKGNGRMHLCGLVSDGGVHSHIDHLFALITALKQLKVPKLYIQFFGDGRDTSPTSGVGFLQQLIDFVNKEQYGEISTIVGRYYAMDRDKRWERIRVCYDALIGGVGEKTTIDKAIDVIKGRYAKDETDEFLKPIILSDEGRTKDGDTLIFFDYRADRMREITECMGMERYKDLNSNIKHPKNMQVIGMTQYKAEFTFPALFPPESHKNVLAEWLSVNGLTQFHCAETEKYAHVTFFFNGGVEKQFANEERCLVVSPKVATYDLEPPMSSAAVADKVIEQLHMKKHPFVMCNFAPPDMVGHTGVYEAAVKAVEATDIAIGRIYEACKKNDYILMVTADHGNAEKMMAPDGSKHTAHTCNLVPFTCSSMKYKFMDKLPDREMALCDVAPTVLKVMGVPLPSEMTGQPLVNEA

[4] = target: T1, C. elegans iPGM; conditions: read-out: KD, prior estimate; zone boundary analysis from a cross-titration of C. elegans iPGM enzyme versus Ce-2; cited from earlier work
[5] = target: T1, C. elegans iPGM; assay: SPR binding kinetics and saturation binding, biotinylated iPGM on Biotin CAPture chip (Biacore S200)
[6] = target: T3, E. coli iPGM (Escherichia coli, UniProt P37689); assay: as above; conditions: for koff / kon: LoQ = limit of quantitation
[7] = target: T3, E. coli iPGM; assay: biochemical
[8] = target: T4, Ce-2 (synthetic construct, thioether N-8); assay: SPR
T4 chain: {CH2CO}-[dY]DYPGDYCYLYGTC

[9] = target: T5, Ce-1 NHOH (synthetic construct, thioether N-8; SMILES …); assay: SPR
T5 chain: {CH2CO}-[dY]DYPGDHCYLYGT-{NHOH}

[10] = target: T6, Ce-2 Thr13Ser (synthetic construct, thioether N-8); assay: SPR
T6 chain: {CH2CO}-[dY]DYPGDYCYLYGSC

[11] = SPR, Req hyperbolic fit where steady state reached, else koff/kon
[12] = SPR, 25 °C, global fit to 1:1 binding model
[13] = Supplementary Table 5, SPR, E.c. iPGM

With `CC[C@H](C)[C@H](NC(=O)[C@H](Cc1ccc(O)cc1)NC(=O)[C@@H]1CSCC(=O)N[C@H](Cc2ccc(O)cc2)C(=O)N[C@@H](CC(=O)O)C(=O)N[C@@H](Cc2ccc(O)cc2)C(=O)N2CCC[C@H]2C(=O)NCC(=O)N[C@@H](CC(=O)O)C(=O)N[C@@H](Cc2ccc(O)cc2)C(=O)N1)C(=O)N[C@@H](Cc1ccc(O)cc1)C(N)=O` [Ce-2d L10I] the IC50 ([1]; IC50, text, C. elegans by contrast with nematode orthologs) was 0.025 µM and the IC50 [2] was 5.03e-07 M.

With `CC(C)C[C@H](NC(=O)[C@H](Cc1ccc(O)cc1)NC(=O)[C@@H]1CSCC(=O)N[C@H](Cc2ccc(O)cc2)C(=O)N[C@@H](CC(=O)O)C(=O)N[C@@H](Cc2ccc(O)cc2)C(=O)N2CCC[C@H]2C(=O)NCC(=O)N[C@@H](CC(=O)O)C(=O)N[C@@H](Cc2ccc(O)cc2)C(=O)N1)C(=O)N[C@@H](Cc1ccc(O)cc1)C(=O)NCC(=O)N[C@H](C(=O)N[C@@H](CS)C(N)=O)[C@@H](C)O` [Ce-2] the koff [3] was 0.000224 s⁻¹, the kon [3] was 482000 M⁻¹ s⁻¹ and the Kd [3, 11] was 0.0005 µM. It also gave a Kd ([3]; Supplementary Table 5, SPR, B.m. iPGM, unit inferred) of 0.00047 µM, a koff [3, 12] of 0.00022 s⁻¹ and a kon [3, 12] of 480000 M⁻¹ s⁻¹. The Kd [4] was 0.07 nM, the Kd [5] was 0.0382 nM and the koff [5] was 3.23e-05 s⁻¹. It also gave a kon [5] of 1.11e+06 M⁻¹ s⁻¹, a koff [5, 12] of 3.2e-05 s⁻¹ and a kon [5, 12] of 1.1e+06 M⁻¹ s⁻¹. For the same molecule, the koff ([6]; SPR, 25 °C, global fit to 1:1 binding model, read-out: koff) was 0.0048 s⁻¹, the kon ([6]; SPR, 25 °C, global fit to 1:1 binding model, read-out: kon) was 100000 M⁻¹ s⁻¹ and the Kd [6, 11] was roughly 0.07 µM. For the same molecule, the koff [6, 13] was 0.00484 s⁻¹, the kon [6, 13] was 102000 M⁻¹ s⁻¹ and the Kd ([6]; Supplementary Table 5, SPR, E.c. iPGM, unit inferred) was 0.0692 µM. It also gave an IC50 ([7]; IC50) greater than 0.1 µM, an IC50 ([7]; […]) of 0.129 µM and an IC50 [2] of 8.27e-10 M.

For `CC(C)C[C@@H]1NC(=O)[C@H](Cc2ccc(O)cc2)NC(=O)[C@H](CS)NC(=O)[C@H](Cc2ccc(O)cc2)NC(=O)[C@H](CC(=O)O)NC(=O)CNC(=O)[C@@H]2CCCN2C(=O)[C@H](Cc2ccc(O)cc2)NC(=O)[C@H](CC(=O)O)NC(=O)[C@@H](Cc2ccc(O)cc2)NC(=O)CSC[C@@H](C(N)=O)NC(=O)[C@H]([C@@H](C)O)NC(=O)CNC(=O)[C@H](Cc2ccc(O)cc2)NC1=O` [Ce-2 [Y1-->C14]], the inhibitory activity [1] was “inactive” and the IC50 [2] was 6.52e-06 M.

In the case of `CC(=O)N[C@@H](Cc1ccc(O)cc1)C(=O)NCC(=O)N[C@H](C(=O)N[C@@H](CS)C(N)=O)[C@@H](C)O` [Ac-YGTCNH2, Ac-YGTC-CONH2] (Ac-YGTC-NH2), the IC50 ([1]; IC50, metal-ion–coordinating sequence alone) is reported as greater than 500 µM and the IC50 [2] is reported as greater than 0.001 M.

B1: iPGM (protein)
chain: MAEAKNRVCLVVIDGWGISNETKGNAILNAKTPVMDELCVMNSHPIQAHGLHVGLPEGLMGNSEVGHLNIGAGRVVYQDIVRINLAVKNKTLVENKHLKEAAERAIKGNGRMHLCGLVSDGGVHSHIDHLFALITALKQLKVPKLYIQFFGDGRDTSPTSGVGFLQQLIDFVNKEQYGEISTIVGRYYAMDRDKRWERIRVCYDALIGGVGEKTTIDKAIDVIKGRYAKDETDEFLKPIILSDEGRTKDGDTLIFFDYRADRMREITECMGMERYKDLNSNIKHPKNMQVIGMTQYKAEFTFPALFPPESHKNVLAEWLSVNGLTQFHCAETEKYAHVTFFFNGGVEKQFANEERCLVVSPKVATYDLEPPMSSAAVADKVIEQLHMKKHPFVMCNFAPPDMVGHTGVYEAAVKAVEATDIAIGRIYEACKKNDYILMVTADHGNAEKMMAPDGSKHTAHTCNLVPFTCSSMKYKFMDKLPDREMALCDVAPTVLKVMGVPLPSEMTGQPLVNEA
With B1 the Kd [8] was 0.0005 µM, the Kd [9] was 0.012 µM and the Kd [10] was 0.085 nM.

— publication PMC8113725, “Structure–activity relationship of ipglycermide binding to phosphoglycerate mutases” (The Journal of Biological Chemistry, 2021)
